{"source": "patent US12410153B2", "about": "“Compounds, compositions and methods” (Avalo Therapeutics, Inc., priority 2014, dated 2025)", "assay": "Repeated once-daily oral dosing with food (Days 1-7) in healthy subjects, PK and PD", "assay_type": "in vivo, human", "settings": "for AUC(0-t) / Cmax / Vd/F / Tmax / AUC(0-inf) / half-life: both sexes, human, plasma, oral; for Cmax: read-out: Cmax, Mean (SD); for AUC(0-inf): read-out: AUCinf, Mean (SD)", "method": "A randomized, double-blind, placebo-controlled, parallel-dose group in-patient study is conducted to investigate the pharmacodynamic (PD) effects of crystalline Form II of Compound (I) in healthy subjects.\nThe study is designed as a three-part, sequential study. The sequential nature of the study ensures that a range of doses are investigated first in a young, healthy population (Part 1) before proceeding to higher doses in the healthy population and the comparator populations (intermediate age and elderly) (Parts 2 and 3). For the purposes of this study, “young” refers to a subject who is 18 to 45 years of age, “intermediate age” refers to a subject who is 46 to 64 years of age, and “elderly” refers to a subject who is 65 years of age or older.\nAfter a screening period of up to 21 days (Days −23 to −3), 16 healthy, young male and female subjects are randomly assigned to a dose group as shown in Table 9.\nEach parallel dose group is balanced for gender (approximately equal number of males and females). The randomized subjects are domiciled from Day −1 through Day 8. On Day −1, the subjects receive placebo tablets in the fed state and undergo ambulatory blood pressure monitoring (ABPM) and safety assessments to establish time-matched baselines. On Days 1-7, the subjects receive the study drug in the fed state and undergo safety, pharmacokinetic (PK) and pharmacodynamics (PD) assessments. On Days 8-11, follow-up PK and safety assessments are performed.\nSafety assessments include Clinician-Administered Dissociative States Scale (CADSS), Columbia-Suicide Severity Rating Scale (C-SSRS), concomitant medication, adverse event (AE) and vital sign assessments. In PK assessments, blood samples are taken and analyzed to determine PK parameters such as Cmax, Tmax, AUC0-24, and t1/2. PD assessments include ABPM, plasma brain-derived neurotrophic factor (BDNF) measurements, and Profile of Mood States (POMS) assessments.\nAfter a screening period of up to 21 days (Days −23 to −3), 16 subjects (8 healthy, young male and female subjects, and 8 healthy, intermediate age male and female subjects) are randomly assigned to a dose group as shown in Table 10.\nAfter a screening period of up to 21 days (Days −23 to −3), 16 subjects (8 healthy, young male and female subjects, and 8 healthy, elderly male and female subjects) are randomly assigned to a dose group as shown in Table 11.", "key": {"[1]": {"settings": "8 mg, young subjects, 8 mg, Day 7"}, "[2]": {"settings": "12 mg, intermediate age, 12 mg, Day 7"}}, "note": "Where two headings read alike, the source gives them in different places."}
{"smiles": "Cc1ccc(COC(=O)N2CC[C@H](CNc3ncccn3)[C@H](F)C2)cc1", "note": "[Form II, 4-methylbenzyl (3S, 4R)-3-fluoro-4-[(pyrimidin-2-ylamino)methyl] piperidine-1-carboxylate]", "values": [{"measurement": "average 7-day plasma BDNF values compared to placebo", "setting": "16 and 20 mg", "value": "trend for an increase"}, {"measurement": "apparent oral clearance lower in female vs male subjects", "setting": "Day 7", "value": "approximately 15%"}, {"measurement": "average Cmax higher in intermediate age and elderly subgroups vs young", "setting": "Day 7", "value": "approximately 30%"}, {"measurement": "t½ higher in female vs male subjects", "setting": "Day 7", "value": "approximately 16%"}, {"measurement": "mean plasma concentrations higher in female vs male subjects", "setting": "Day 7, 2 to 24 hours postdose", "value": "approximately 20%"}, {"measurement": "Cmax and AUC vs dose", "setting": "Days 1 and 7, 8 to 20 mg", "value": "approximately dose-proportional"}, {"measurement": "average 24 hour and daytime SBP and DBP", "setting": "all doses compared to placebo, maximal by Day 4", "value": "increased"}, {"measurement": "AUC(0-t)", "setting": "8 mg, young subjects, 8 mg, Day 1, read-out: AUC0-24, Mean (SD)", "value": 1500, "unit": "ng·h/mL"}, {"measurement": "AUC(0-t)", "setting": "8 mg, young subjects, 8 mg, Day 1, read-out: AUClast, Mean (SD)", "value": 1490, "unit": "ng·h/mL"}, {"measurement": "Cmax", "setting": "8 mg, young subjects, 8 mg, Day 1", "value": 179, "unit": "ng/mL"}, {"measurement": "Vd/F", "setting": "8 mg, young subjects, 8 mg, Day 1, read-out: Vz/F, Mean (SD)", "value": 101, "unit": "L"}, {"measurement": "Tmax", "setting": "8 mg, young subjects, 8 mg, Day 1, read-out: tmax, Mean (SD)", "value": 2.17, "unit": "h"}, {"measurement": "Tmax", "setting": "8 mg, young subjects, 8 mg, Day 1, read-out: tmax, Median", "value": 2, "unit": "h"}, {"measurement": "AUC(0-t)", "setting": "8 mg, young subjects, 8 mg, Day 7, read-out: AUC0-24, Mean (SD)", "value": 2400, "unit": "ng·h/mL"}, {"measurement": "AUC(0-inf)", "setting": "[1]", "value": 4110, "unit": "ng·h/mL"}, {"measurement": "AUC(0-t)", "setting": "8 mg, young subjects, 8 mg, Day 7, read-out: AUClast, Mean (SD)", "value": 3770, "unit": "ng·h/mL"}, {"measurement": "Cmax", "setting": "[1]", "value": 224, "unit": "ng/mL"}, {"measurement": "half-life", "setting": "8 mg, young subjects, 8 mg, Day 7, read-out: t1/2, Mean (SD) (converted)", "value": 17.2, "unit": "h"}, {"measurement": "Tmax", "setting": "8 mg, young subjects, 8 mg, Day 7, read-out: tmax, Mean (SD)", "value": 2.75, "unit": "h"}, {"measurement": "Tmax", "setting": "8 mg, young subjects, 8 mg, Day 7, read-out: tmax, Median", "value": 3, "unit": "h"}, {"measurement": "half-life", "setting": "12 mg, Day 7, read-out: average t½, range across age groups", "value": "20 to 28", "unit": "h"}, {"measurement": "AUC(0-t)", "setting": "12 mg, elderly, 12 mg, Day 1, read-out: AUC0-24, Mean (SD)", "value": 2130, "unit": "ng·h/mL"}, {"measurement": "AUC(0-t)", "setting": "12 mg, elderly, 12 mg, Day 1, read-out: AUClast, Mean (SD)", "value": 2100, "unit": "ng·h/mL"}, {"measurement": "Cmax", "setting": "12 mg, elderly, 12 mg, Day 1", "value": 229, "unit": "ng/mL"}, {"measurement": "Vd/F", "setting": "12 mg, elderly, 12 mg, Day 1, read-out: Vz/F, Mean (SD)", "value": 164, "unit": "L"}, {"measurement": "Tmax", "setting": "12 mg, elderly, 12 mg, Day 1, read-out: tmax, Mean (SD)", "value": 1.93, "unit": "h"}, {"measurement": "Tmax", "setting": "12 mg, elderly, 12 mg, Day 1, read-out: tmax, Median", "value": 1.75, "unit": "h"}, {"measurement": "AUC(0-t)", "setting": "12 mg, elderly, 12 mg, Day 7, read-out: AUC0-24, Mean (SD)", "value": 4520, "unit": "ng·h/mL"}, {"measurement": "AUC(0-inf)", "setting": "12 mg, elderly, 12 mg, Day 7", "value": 10300, "unit": "ng·h/mL"}, {"measurement": "AUC(0-t)", "setting": "12 mg, elderly, 12 mg, Day 7, read-out: AUClast, Mean (SD)", "value": 9140, "unit": "ng·h/mL"}, {"measurement": "Cmax", "setting": "12 mg, elderly, 12 mg, Day 7", "value": 349, "unit": "ng/mL"}, {"measurement": "Vd/F", "setting": "12 mg, elderly, 12 mg, Day 7, read-out: Vss/F, Mean (SD)", "value": 111, "unit": "L"}, {"measurement": "half-life", "setting": "12 mg, elderly, 12 mg, Day 7, read-out: t1/2, Mean (SD) (converted)", "value": 28.3, "unit": "h"}, {"measurement": "Tmax", "setting": "12 mg, elderly, 12 mg, Day 7, read-out: tmax, Mean (SD)", "value": 2.26, "unit": "h"}, {"measurement": "Tmax", "setting": "12 mg, elderly, 12 mg, Day 7, read-out: tmax, Median", "value": 2, "unit": "h"}, {"measurement": "AUC(0-t)", "setting": "12 mg, intermediate age, 12 mg, Day 1, read-out: AUC0-24, Mean (SD)", "value": 2000, "unit": "ng·h/mL"}, {"measurement": "AUC(0-t)", "setting": "12 mg, intermediate age, 12 mg, Day 1, read-out: AUClast, Mean (SD)", "value": 1980, "unit": "ng·h/mL"}, {"measurement": "Cmax", "setting": "12 mg, intermediate age, 12 mg, Day 1", "value": 257, "unit": "ng/mL"}, {"measurement": "Vd/F", "setting": "12 mg, intermediate age, 12 mg, Day 1, read-out: Vz/F, Mean (SD)", "value": 201, "unit": "L"}, {"measurement": "Tmax", "setting": "12 mg, intermediate age, 12 mg, Day 1, read-out: tmax, Mean (SD)", "value": 2.5, "unit": "h"}, {"measurement": "Tmax", "setting": "12 mg, intermediate age, 12 mg, Day 1, read-out: tmax, Median", "value": 2.5, "unit": "h"}, {"measurement": "AUC(0-t)", "setting": "12 mg, intermediate age, 12 mg, Day 7, read-out: AUC0-24, Mean (SD)", "value": 3840, "unit": "ng·h/mL"}, {"measurement": "AUC(0-inf)", "setting": "[2]", "value": 8100, "unit": "ng·h/mL"}, {"measurement": "AUC(0-t)", "setting": "12 mg, intermediate age, 12 mg, Day 7, read-out: AUClast, Mean (SD)", "value": 7470, "unit": "ng·h/mL"}, {"measurement": "Cmax", "setting": "[2]", "value": 360, "unit": "ng/mL"}, {"measurement": "Vd/F", "setting": "12 mg, intermediate age, 12 mg, Day 7, read-out: Vss/F, Mean (SD)", "value": 121, "unit": "L"}, {"measurement": "half-life", "setting": "12 mg, intermediate age, 12 mg, Day 7, read-out: t1/2, Mean (SD) (converted)", "value": 26.1, "unit": "h"}, {"measurement": "Tmax", "setting": "12 mg, intermediate age, 12 mg, Day 7, read-out: tmax, Mean (SD)", "value": 1.83, "unit": "h"}, {"measurement": "Tmax", "setting": "12 mg, intermediate age, 12 mg, Day 7, read-out: tmax, Median", "value": 1.5, "unit": "h"}]}
